The values below come from patent US11168086B2, “Methods of synthesizing pyrazine compounds” (Hoffmann-La Roche Inc., priority 2015, dated 2021).

What is called EC50 is the concentration giving half of the maximal effect. Low readings indicate a more potent agent, high ones a less potent agent.

In this assay the test system is HBV. The assay can be described thus: HBV inhibition assay: anti-HBV activity in vitro in HepG2.2.15 cells (extracellular HBV DNA by qPCR). The conditions noted are these: Hepatitis B virus, 120 h, five days after compound treatment, extracellular HBV DNA in culture supernatant by qPCR, concentration at which HBV replication is inhibited by 50%. Type of assay: cell-based. Put shortly: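 HepG2.2.15 cells (stably carrying HBV genome) treated with half-log serially diluted compounds at 0.5% DMSO final for five days. Extracellular HBV DNA in supernatant quantified by qPCR after Proteinase K digestion; EC50 is concentration giving 50% inhibition of replication.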
Background: Real-time PCR tracks product formation cycle by cycle.
Turning to `CC1CCN(c2cnn3c2CN(C(=O)Nc2cc(F)c(F)c(F)c2)[C@@H](C)C3)C(=O)O1` (stereo partly drawn) [Example 425, (6S)-6-methyl-3-(6-methyl-2-oxo-1,3-oxazinan-3-yl)-N-(3,4,5-trifluorophenyl)-6,7-dihydro-4H-pyrazolo[1,5-a]pyrazine-5-carboxamide], a half-maximal effect (EC50) was put at 87 nM.

In turn, `CC1CCOC(=O)N1c1cnn2c1CN(C(=O)Nc1cc(F)c(F)c(F)c1)[C@@H](C)C2` (stereo partly drawn) [Example 426, (6S)-6-methyl-3-(4-methyl-2-oxo-1,3-oxazinan-3-yl)-N-(3,4,5-trifluorophenyl)-6,7-dihydro-4H-pyrazolo[1,5-a]pyrazine-5-carboxamide] registered an EC50 of 29 nM.

Molecule `C[C@H]1Cn2ncc(N3C[C@@H](Oc4ncccn4)[C@H](O)C3=O)c2CN1C(=O)Nc1cc(F)c(F)c(F)c1` [Example 428, (6S)-3-[(3S,4R)-3-hydroxy-2-oxo-4-pyrimidin-2-yloxy-pyrrolidin-1-yl]-6-methyl-N-(3,4,5-trifluorophenyl)-6,7-dihydro-4H-pyrazolo[1,5-a]pyrazine-5-carboxamide] gave an EC50 of 6 nM.

In the case of `C[C@@H]1[C@@H](Oc2ncccn2)[C@H](O)C(=O)N1c1cnn2c1CN(C(=O)Nc1cc(F)c(F)c(F)c1)[C@@H](C)C2` [Example 436, (6S)-3-[(2R,3R,4S)-4-hydroxy-2-methyl-5-oxo-3-pyrimidin-2-yloxy-pyrrolidin-1-yl]-6-methyl-N-(3,4,5-trifluorophenyl)-6,7-dihydro-4H-pyrazolo[1,5-a]pyrazine-5-carboxamide], the EC50 was determined as 16 nM.

With `C[C@H]1Cn2ncc(N3CC(c4ncccn4)CC3=O)c2CN1C(=O)Nc1cc(F)c(F)c(F)c1` (stereo partly drawn) [Example 437, (6S)-6-methyl-3-(2-oxo-4-pyrimidin-2-yl-pyrrolidin-1-yl)-N-(3,4,5-trifluorophenyl)-6,7-dihydro-4H-pyrazolo[1,5-a]pyrazine-5-carboxamide], the EC50 was found to be 6 nM.
